These are literature values, as cited in US20050158403A1, “Preparation of chinese herbal composite recipe used in horticulture” (priority 2004, published 2005).

The test system of one data set is Shigella. The settings on record: 1% matrine; in vitro.
A further data set deals with E. Coli. To be noted: 1% matrine; in vitro.
Another data set relates to Proteus. The settings on record: 1% matrine; in vitro.
A further data set concerns B-streptococcus. The settings on record: 1% matrine; in vitro.
The test system of a further data set is Staphylococcus aureaus. The settings on record: 1% matrine; in vitro.

On to `O=C1CCC[C@@H]2[C@H]3CCCN4CCC[C@@H](CN12)[C@@H]34` [matrine], for which the bacteria inhibition effects result with Shigella, in the data set with E. Coli, in the data set on Proteus, in the data set on B-streptococcus and with Staphylococcus aureaus was “bacteria inhibition effects” throughout.
Turning to `CC[C@@H]1[C@H]2CCCCN3[C@H]2[C@H](C[C@H]3[C@@H]2C[C@H](C)C(=O)O2)[C@@H]2[C@H]1OC(=O)[C@H]2C` [tuberostemonine], in the data set on Ascarid, the “effect on Ascarid” value is recorded as “tuberostemonine can paralyze”.
On to discorea saponin, for which the effect to bacteria entry with bacteria is “but no effect to bacteria”.
